The Cmax is the highest concentration seen after dosing. The half-life is the time needed for the level to fall by half in the phase considered. A low value points to rapid decline.

Values after ≈ are worked out from the molar mass of the structure shown. Bounds are passed on as bounds.

The subject of one data set is Haemophilus influenzae. Nature of the data set: Minimum inhibition concentration against Haemophilus influenzae strains. The data set is classed as functional.
Data set [1] deals with Staphylococcus aureus. Nature of the data set: Minimum inhibition concentration against Staphylococcus aureus strains in presence of >64% calf serum. Format: functional.
Data set [2] relates to Staphylococcus aureus. Briefly: Minimum inhibition concentration against Staphylococcus aureus strains in presence of 8% calf serum. The data set is classed as functional.
Data set [3] has as its system Staphylococcus aureus. Nature of the data set: Minimum inhibition concentration against Staphylococcus aureus strains in presence of 2% calf serum. Format: functional.
Data set [4] concerns Staphylococcus aureus. Briefly: Minimum inhibition concentration against Staphylococcus aureus strains in presence of >32% calf serum. The data set is classed as functional.
Data set [5] concerns Staphylococcus aureus. Nature of the data set: Minimum inhibition concentration against Staphylococcus aureus strains in presence of 1% calf serum. Format: functional.
Data set [6] deals with Staphylococcus aureus. Nature of the data set: Minimum inhibition concentration against Staphylococcus aureus strains in presence of 16% calf serum. The data set is classed as functional.
Data set [7] relates to Staphylococcus aureus. Briefly: Minimum inhibition concentration against Staphylococcus aureus strains in presence of 0.5% calf serum. The data set is classed as functional.
In data set [8] the test system is Staphylococcus aureus. Briefly: Minimum inhibition concentration against Staphylococcus aureus strains in presence of 32% calf serum. The data set is classed as functional. The settings on record: Staphylococcus aureus.
The nature of data set [9]: Protective dose against Staphylococcus aureus in mice after 8 days of oral b.i.d. administration at 1 and 5 hr per interval (n=10). Format: functional. As to conditions: read-out: PD50.
Data set [10] is described as follows: Maximum serum concentration in mouse was determined. Format: ADME, organism-based.
Data set [11] is described as follows: Area under curve concentration in mouse was determined. Format: ADME. The settings on record: in vivo.
A short description of data set [12]: Half life for compound in mouse was determined. Format: ADME. As to conditions: in vivo.
The subject of data set [13] is Staphylococcus aureus. Nature of the data set: Minimum inhibition concentration against Staphylococcus aureus strains in presence of 4% calf serum. Format: functional.
Another data set has as its system Mus musculus. Briefly: Protective dose against Staphylococcus aureus in mice after 8 days of oral b.i.d. administration at 1 and 5 h per interval with water as vehicle (n=10); range is 5-6 mg/kg/day. Format: functional. The settings on record: read-out: PD50.

On to `CC(=O)NCn1cc(-c2ccc(-c3cncc(C(=O)O)c3)cc2)c(=O)o1`, for which the figures for the MIC in the data set with Haemophilus influenzae and in the data set with Staphylococcus aureus [1] were 64 µg/mL (≈ 181 µM) and 32 µg/mL, respectively.
Take `COc1ccccc1-c1ccc(-c2cn(CNC(C)=O)oc2=O)cc1`: the results for the MIC against Haemophilus influenzae and in the data set on Staphylococcus aureus [2] were 32 µg/mL (≈ 94.6 µM) and 0.5 µg/mL, respectively.
For the compound `CC(=O)NCn1cc(-c2ccc(-c3ccc(C(C)=O)cc3)cc2)c(=O)o1`, the MIC in the data set with Haemophilus influenzae came to 4 µg/mL (≈ 11.4 µM); with Staphylococcus aureus [3], 0.06 µg/mL.
As to `CC(=O)NCn1cc(-c2ccc(-c3ccc(Oc4ccccc4)cc3)cc2)c(=O)o1`, the MIC is more than 32 µg/mL against Haemophilus influenzae and 64 µg/mL in the data set on Staphylococcus aureus [4].
Turning to `CC(=O)NCn1cc(-c2ccc(-c3ccc([N+](=O)[O-])cc3)cc2)c(=O)o1`, the MIC in the data set on Haemophilus influenzae was more than 32 µg/mL; with Staphylococcus aureus [5], 0.03 µg/mL.
On to `CC(=O)NCn1cc(-c2ccc(-c3cccc(C(=O)O)c3)cc2)c(=O)o1`, for which the MIC against Haemophilus influenzae came out at 8 µg/mL (≈ 22.7 µM); with Staphylococcus aureus [6], 16 µg/mL.
For the compound `COC(=O)c1ccc(-c2ccc(-c3cn(CNC(C)=O)oc3=O)cc2)cc1`, the MIC was more than 32 µg/mL against Haemophilus influenzae and 0.06 µg/mL in the data set on Staphylococcus aureus [7].
For the compound `CC(=O)NCn1cc(-c2ccc(-c3ccc(C(=O)O)c(F)c3)cc2)c(=O)o1`, the MIC was determined as 32 µg/mL (≈ 86.4 µM) in the data set on Haemophilus influenzae and 4 µg/mL in the data set with Staphylococcus aureus [8].
On to `COc1cc(-c2ccc(-c3cn(CNC(C)=O)oc3=O)cc2)cc(OC)c1OC`, for which the MIC is more than 32 µg/mL in the data set on Haemophilus influenzae and 4 µg/mL in the data set on Staphylococcus aureus [6].
For the compound `CC(=O)NCn1cc(-c2ccc(-c3ncn(C)n3)cc2)c(=O)o1`, the MIC in the data set on Haemophilus influenzae was more than 64 µg/mL; in the data set on Staphylococcus aureus [2], 4 µg/mL.
With `CC(=O)NCn1cc(-c2ccc(-c3ccc[nH]3)cc2)c(=O)o1`, the MIC against Haemophilus influenzae was more than 64 µg/mL; with Staphylococcus aureus [6], 8 µg/mL.
Consider `CSc1ccc(-c2ccc(-c3cn(CNC(C)=O)oc3=O)cc2)cc1`, for which the MIC is more than 32 µg/mL with Haemophilus influenzae and 0.5 µg/mL in the data set on Staphylococcus aureus [6].
For `CC(=O)NCn1cc(-c2ccc(-c3ccc(Cl)cc3)cc2)c(=O)o1`, the MIC against Haemophilus influenzae was more than 32 µg/mL; in the data set with Staphylococcus aureus [2] it was 0.06 µg/mL.
Consider `CC(=O)NCn1cc(-c2ccc(-c3ccc(C)nc3)cc2)c(=O)o1`, for which the MIC against Haemophilus influenzae is 8 µg/mL (≈ 24.7 µM); in the data set on Staphylococcus aureus [3] it was 0.25 µg/mL.
In the case of `CC(=O)NCn1cc(-c2ccc(-c3sccc3CN3CCOCC3)cc2)c(=O)o1`, the results for the MIC in the data set on Haemophilus influenzae and with Staphylococcus aureus [1] were more than 64 µg/mL and 8 µg/mL, respectively.
For the compound `CC(=O)NCn1cc(-c2ccc(C3CCN(C(C)=O)CC3)cc2)c(=O)o1`, the MIC with Haemophilus influenzae was 8 µg/mL (≈ 22.4 µM); with Staphylococcus aureus [5], 1 µg/mL.
In the case of `CC(=O)NCn1cc(-c2ccc(-c3ccc(C#N)cc3)cc2)c(=O)o1`, the MIC with Haemophilus influenzae is 4 µg/mL (≈ 12 µM); in the data set on Staphylococcus aureus [3], 0.06 µg/mL.
For the compound `CC(=O)NCn1cc(-c2ccc(-c3ccc(C(F)(F)F)cc3)cc2)c(=O)o1`, the MIC was more than 32 µg/mL with Haemophilus influenzae and 0.25 µg/mL in the data set with Staphylococcus aureus [2].
For `CC(=O)NCn1cc(-c2ccc(-c3cccc(N)c3)cc2)c(=O)o1`, the MIC against Haemophilus influenzae turned out to be 2 µg/mL (≈ 6.19 µM); in the data set on Staphylococcus aureus [3], 0.125 µg/mL.
For `CC(=O)NCn1cc(-c2ccc(C3CCOCC3)cc2)c(=O)o1`, in that order: 32 µg/mL (≈ 101 µM) and 1 µg/mL.
For the compound `CC(=O)NCn1cc(-c2ccc(-c3ccc(C(=O)O)cc3)cc2)c(=O)o1`, the MIC against Haemophilus influenzae turned out to be 2 µg/mL (≈ 5.68 µM); in the data set with Staphylococcus aureus [2], 1 µg/mL. For the same compound, in data set [9], the ED50 is more than 50 mg/kg/day. The compound further had a Cmax in data set [10] of 1700 ng/mL. For the same compound, the AUC in data set [11] came to 0.56 µg/h/mL. Further, the half-life in data set [12] is 8.5 min.
On to `CC(=O)NCn1cc(-c2ccc(-c3ccc(F)cc3)cc2)c(=O)o1`, for which the MIC with Haemophilus influenzae amounted to 2 µg/mL (≈ 6.13 µM); in the data set on Staphylococcus aureus [13], 0.03 µg/mL. The ED50 in data set [9] was less than 5 mg/kg/day.
Turning to `CC(=O)NCn1cc(-c2ccc(-c3ccoc3)cc2)c(=O)o1`, the results for the MIC with Haemophilus influenzae and in the data set on Staphylococcus aureus [13] were 4 µg/mL (≈ 13.4 µM) and 0.125 µg/mL, respectively. Also, in [9], the ED50 was more than 50 mg/kg/day.
As to `COc1ccc(-c2ccc(-c3cn(CNC(C)=O)oc3=O)cc2)cc1OC`, the values for the MIC in the data set on Haemophilus influenzae and in the data set with Staphylococcus aureus [5] were 32 µg/mL (≈ 86.9 µM) and 0.25 µg/mL, respectively.
On to `CC(=O)NCn1cc(-c2ccc(-c3sccc3CO)cc2)c(=O)o1`, for which the MIC against Haemophilus influenzae was 32 µg/mL (≈ 92.9 µM); in the data set on Staphylococcus aureus [13], 0.25 µg/mL.
The corresponding values for `CC(=O)NCn1cc(-c2ccc(-c3ccc(/C=C/[N+](=O)[O-])cc3)cc2)c(=O)o1` are 4 µg/mL (≈ 10.5 µM) and 0.125 µg/mL.
For the compound `CC(=O)NCn1cc(-c2ccc(C3=CCN(C(C)=O)CC3)cc2)c(=O)o1`, the MIC turned out to be 2 µg/mL (≈ 5.63 µM) with Haemophilus influenzae and 0.25 µg/mL in the data set with Staphylococcus aureus [7]. Moreover, the ED50 in [9] amounted to 9 mg/kg/day. This compound also displayed a Cmax in data set [10] of 2600 ng/mL. The AUC in [11] stood at 1.5 µg/h/mL. The compound also yielded a half-life in data set [12] of 6.4 min.
With `CC(=O)NC[C@H]1CN(c2ccc(N3CCOCC3)c(F)c2)C(=O)O1` [LINEZOLID], the MIC was 32 µg/mL (≈ 94.9 µM) against Haemophilus influenzae and 1 µg/mL in the data set with Staphylococcus aureus [3]. In addition, in the data set on Mus musculus, the ED50 is 6 mg/kg/day.

The values above are taken from ChEMBL document CHEMBL1139561, “Biaryl isoxazolinone antibacterial agents” (Bioorg Med Chem Lett, 2005).
